The record followed here is PubChem BioAssay (NCI).

Test systems include MDA-MB-231 breast; SK-MEL-5 melanoma; NCI/ADR-RES ovarian; HS 578T breast; 786-0 renal; SW-620 colon; RPMI-8226 leukemia; OVCAR-5 ovarian; COLO 205 colon; SK-MEL-28 melanoma.
Holding throughout (assay): DTP human tumour cell line panel, 48 h

Values joined by “and” are separate entries in the source; they are usually repeats but may differ in a detail not shown here. Equal entries are not always repeated.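 Protocol summary: plate cells (96-well), add compound at 5 concentrations, incubate 48 h, interpolate endpoints linearly. Abbreviation: GI50, concentration required for 50% inhibition of growth. TGI: concentration producing complete growth inhibition.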

Take `COc1ccc2[nH]c(-c3cccc(N(C)C)c3)cc(=O)c2c1`: the GI50 with MDA-MB-231 breast is 2.1 µM; in the assay with SK-MEL-5 melanoma it was 0.305 µM; in the assay with NCI/ADR-RES ovarian it was 487 nM; in the assay with 786-0 renal, 539 nM; in the assay with SW-620 colon it was 303 nM; in the assay with RPMI-8226 leukemia, 0.443 µM. In addition, the GI50 in the assay on OVCAR-5 ovarian is 0.784 µM; in the assay on COLO 205 colon it was 0.379 µM; with SK-MEL-28 melanoma, 0.795 µM. In addition, the TGI in the assay with MDA-MB-231 breast was greater than 100 µM; in the assay with HS 578T breast, 0.509 µM; with 786-0 renal, greater than 100 µM; in the assay with SW-620 colon, greater than 100 µM; with RPMI-8226 leukemia, 0.844 µM; in the assay on OVCAR-5 ovarian, greater than 100 µM. Besides, the TGI in the assay with SK-MEL-28 melanoma was greater than 100 µM.
Consider `COc1cccc(Cn2cc3c(c2)-c2oncc2CC3)c1`, for which the GI50 with MDA-MB-231 breast was 0.636 µM; in the assay on SK-MEL-5 melanoma it was 0.44 µM; with NCI/ADR-RES ovarian it was 317 nM; with HS 578T breast it was 0.249 µM; with 786-0 renal it was 1980 nM; with SW-620 colon it was 319 nM. Also, the GI50 with RPMI-8226 leukemia is 0.365 µM; in the assay on OVCAR-5 ovarian it was 0.693 µM; in the assay on COLO 205 colon, 0.313 µM; in the assay with SK-MEL-28 melanoma it was 0.746 µM. The TGI in the assay on MDA-MB-231 breast is 96.8 µM; with SK-MEL-5 melanoma, 3.09 µM; with HS 578T breast, 0.886 µM; in the assay on 786-0 renal it was greater than 100 µM; in the assay with SW-620 colon, greater than 100 µM; in the assay with OVCAR-5 ovarian it was greater than 100 µM. Further, the TGI was 1.05 µM with COLO 205 colon and greater than 100 µM in the assay with SK-MEL-28 melanoma.
As to `COc1ccc(/C(Cl)=C(\C=O)c2ccc(OC)c(OC)c2)cc1OC`, the TGI in the assay with MDA-MB-231 breast, with SK-MEL-5 melanoma, in the assay on NCI/ADR-RES ovarian, in the assay with HS 578T breast, in the assay with 786-0 renal and with SW-620 colon was greater than 100 µM in each case. Also, the TGI in the assay on RPMI-8226 leukemia is greater than 100 µM; in the assay with OVCAR-5 ovarian it was greater than 48.7 µM; with COLO 205 colon, greater than 100 µM; in the assay with SK-MEL-28 melanoma it was greater than 100 µM.
On to `CCOC(=O)c1c(C)n(CC(C)C)c2c1cc1oc(=O)c(=O)n3cnc2c13`, for which the GI50 is 8.18 µM in the assay with MDA-MB-231 breast; 10.1 µM in the assay on SK-MEL-5 melanoma; 11600 nM in the assay on NCI/ADR-RES ovarian; 11.8 µM with HS 578T breast; 20100 nM in the assay with 786-0 renal; 1790 nM with SW-620 colon. The GI50 in the assay with RPMI-8226 leukemia was 15.8 µM; in the assay with OVCAR-5 ovarian, 29.6 µM; with COLO 205 colon it was 20.7 µM; in the assay on SK-MEL-28 melanoma, 23.6 µM. The TGI with MDA-MB-231 breast is 22.1 µM; in the assay with SK-MEL-5 melanoma, 19.8 µM; in the assay on NCI/ADR-RES ovarian, 38 µM; with HS 578T breast it was 38.5 µM; in the assay with 786-0 renal, greater than 50 µM; in the assay with SW-620 colon, 10.6 µM. Also, the TGI in the assay on RPMI-8226 leukemia was 37.2 µM; with OVCAR-5 ovarian, greater than 50 µM; in the assay on COLO 205 colon, greater than 50 µM; with SK-MEL-28 melanoma, greater than 50 µM.
For the compound `COc1ccccc1CNC(=O)C1c2ccccc2C(=O)N(CC(C)C)C1c1cccs1` (stereo not drawn), the GI50 in the assay on MDA-MB-231 breast is 26.8 µM; in the assay on SK-MEL-5 melanoma, 14.7 µM; with NCI/ADR-RES ovarian, 20600 nM; with HS 578T breast, 16 µM; in the assay on 786-0 renal it was 20300 nM; in the assay with SW-620 colon, 26400 nM. The GI50 in the assay on RPMI-8226 leukemia was 13.9 µM; in the assay with OVCAR-5 ovarian, 34.6 µM; in the assay on COLO 205 colon, 18.2 µM; in the assay with SK-MEL-28 melanoma, 30.7 µM. The TGI in the assay with MDA-MB-231 breast was greater than 100 µM; in the assay with SK-MEL-5 melanoma, 28.9 µM; in the assay with NCI/ADR-RES ovarian it was greater than 100 µM; with HS 578T breast, 60.1 µM; with 786-0 renal, 51.2 µM; with SW-620 colon it was greater than 100 µM. Further, the total growth inhibition concentration (TGI) is 45.2 µM in the assay on RPMI-8226 leukemia, greater than 100 µM with OVCAR-5 ovarian, 39.1 µM in the assay on COLO 205 colon and greater than 100 µM in the assay with SK-MEL-28 melanoma.
With `CCCCCC(=O)OCC(=O)O[C@@H]1C[C@]2(C(C)C)O[C@@]1(C)[C@@H]1CC[C@@H](C)[C@H]1[C@@H]2OC(=O)/C=C/c1ccccc1`, the GI50 in the assay with MDA-MB-231 breast is greater than 57.5 µM; with SK-MEL-5 melanoma, 42.5 µM; in the assay on NCI/ADR-RES ovarian, 291 nM; in the assay with 786-0 renal it was 789 nM; in the assay with SW-620 colon, greater than 40700 nM; in the assay on RPMI-8226 leukemia, 43.3 µM. For the same compound, the GI50 in the assay on OVCAR-5 ovarian is greater than 81.7 µM; in the assay with COLO 205 colon, greater than 61.3 µM; with SK-MEL-28 melanoma, greater than 56.6 µM. Moreover, the TGI is greater than 80.5 µM in the assay with MDA-MB-231 breast; greater than 77.4 µM in the assay on SK-MEL-5 melanoma; greater than 70.6 µM in the assay on NCI/ADR-RES ovarian; 0.0315 µM with HS 578T breast; 13.6 µM with 786-0 renal; greater than 67.6 µM with SW-620 colon. Moreover, the TGI with RPMI-8226 leukemia was greater than 100 µM; in the assay on OVCAR-5 ovarian, greater than 100 µM; with COLO 205 colon, greater than 95.9 µM; in the assay with SK-MEL-28 melanoma it was greater than 83 µM.
For `O=C(O)C(Br)C(Br)c1ccccc1[N+](=O)[O-]` (stereo not drawn), the TGI in the assay on MDA-MB-231 breast, in the assay on SK-MEL-5 melanoma, in the assay with NCI/ADR-RES ovarian, with HS 578T breast, in the assay on 786-0 renal and in the assay on SW-620 colon was greater than 100 µM throughout. Moreover, the TGI in the assay on RPMI-8226 leukemia, in the assay on OVCAR-5 ovarian, in the assay with COLO 205 colon and in the assay with SK-MEL-28 melanoma was greater than 100 µM throughout.
In the case of `CC1CCC2C(C)C3C(CC4C5CC=C6CC(OC7OC(CO)C(O)C(OC8OC(CO)C(O)C(O)C8O)C7OC7OC(C)C(O)C(O)C7O)CCC6(C)C5CCC43C)N2C1` (stereo not drawn), the GI50 with MDA-MB-231 breast, in the assay on SK-MEL-5 melanoma, in the assay with NCI/ADR-RES ovarian, with HS 578T breast, with 786-0 renal and with SW-620 colon was greater than 2.5 µg/mL each time. The GI50 with RPMI-8226 leukemia, with OVCAR-5 ovarian, in the assay on COLO 205 colon and with SK-MEL-28 melanoma was greater than 2.5 µg/mL in each case. Besides, the TGI with MDA-MB-231 breast is 27.8 µM and > 2.5 µg/mL; in the assay on SK-MEL-5 melanoma, 33.3 µM and > 2.5 µg/mL; in the assay on NCI/ADR-RES ovarian it was 34.8 µM and > 2.5 µg/mL; in the assay with HS 578T breast, 32.6 µM and > 2.5 µg/mL; in the assay on 786-0 renal, 20.4 µM and > 2.5 µg/mL; with SW-620 colon it was 31.6 µM and > 2.5 µg/mL. Besides, the TGI in the assay with RPMI-8226 leukemia is 45.9 µM and > 2.5 µg/mL; with OVCAR-5 ovarian, 28 µM and > 2.5 µg/mL; in the assay with COLO 205 colon, 33 µM and > 2.5 µg/mL; in the assay on SK-MEL-28 melanoma, 21.8 µM and > 2.5 µg/mL.
Consider `O=[N+]([O-])c1cc(Cl)cc2c1nc(NCCO)c1ccccc12`, for which the TGI with MDA-MB-231 breast was greater than 100 µM; with SK-MEL-5 melanoma, 3.96 µM; in the assay with NCI/ADR-RES ovarian, greater than 100 µM; in the assay with HS 578T breast, greater than 100 µM; in the assay with 786-0 renal, greater than 100 µM; in the assay on SW-620 colon, greater than 100 µM. The TGI in the assay with RPMI-8226 leukemia was greater than 100 µM; with OVCAR-5 ovarian, greater than 63 µM; in the assay on COLO 205 colon, 0.236 µM; with SK-MEL-28 melanoma, greater than 100 µM.

One may read the GI50 as the concentration that inhibits growth by half. One may read the TGI as the concentration giving total growth inhibition. Read a low TGI as greater sensitivity of the cells.
